These results are taken from patent publication US8895585B2, “Nicotinamide derivative or salt thereof” (FUJIFILM Corporation, priority 2010, dated 2014).

Read-outs that look alike come from different tables or passages of the source.

One assay concerns THP-1 cells. Kind of assay: TNFα generation assay. In kind it is cell-based, human. The procedure, abridged:
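THP-1 cells differentiated to macrophage-like cells with 10 ng/ml IFN-γ for 2 days, preincubated with compound 30 min at room temperature, then cultured 7 h on plates coated with human IgG (10 μg/ml). Secreted TNFα measured by ELISA or AlphaLISA.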

For assay [1], the target named is T1, glutathione S-transferase (GST)-fused full-length human Syk protein (Homo sapiens, UniProt P43405).
T1 construct: (GST)-fused full-length human Syk protein; GST (glutathione S-transferase); purchased Carna Biosciences
Kind of assay: Syk enzyme assay. Type of assay: biochemical. The procedure, abridged:
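Baculovirus-expressed enzyme (1.2 ng) was preincubated with compound in HEPES pH 7.0/MgCl2/DTT buffer, 2 min shaking then 13 min at room temperature. Biotin-EDPDYEWPSA-NH2 (0.4 μM final) and ATP (27 μM final) were added for 40 min at room temperature. EDTA stop, streptavidin-XL/PT66-K TR-FRET at 615/665 nm gave IC50.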

The mark [2] stands for this setting: Homo sapiens, THP-1, THP-1 cells, Table 22, read-out: IC50 in TNFα generation assay.
Where [3] appears, read: Syk enzyme assay, Test Example 1, read-out: IC50 of Syk-inhibitory activity.
Where [4] appears, read: THP-1 cells, Table 22, read-out: IC50 in TNFα generation assay.

Regarding `CC(C)C[C@H](CN)Nc1nc(Nc2cncc(-n3nccn3)c2)c(C(N)=O)cc1F` [Example 004-195, (R)-2-((5-(2H-1,2,3-triazol-2-yl)pyridin-3-yl)amino)-6-((1-amino-4-methylpentan-2-yl)amino)-5-fluoronicotinamide], the IC50 in the assay with THP-1 cells (setting [2]) was 65 to 130 nM; in assay [1] (setting [3]), under 10 nM.
As for `CC(C)C[C@H](CN)Nc1nc(Nc2cnc3c(N)cccc3c2)c(C(N)=O)cc1F` [Example 004-196, (R)-6-((1-amino-4-methylpentan-2-yl)amino)-2-((8-aminoquinolin-3-yl)amino)-5-fluoronicotinamide], the results for the IC50 (with THP-1 cells (setting [2]); in assay [1] (setting [3])) were 130 to 200 nM and under 10 nM, respectively.
As to `Cn1ncc2cc(Nc3nc(N[C@@H]4CCCC[C@@H]4N)c(F)cc3C(N)=O)cnc21` [Example 004-213], the IC50 is 65 to 130 nM in the assay on THP-1 cells (setting [2]) and 10 to 50 nM in assay [1] (setting [3]).
In the same order, the values of `COc1ncc(Nc2nc(N[C@@H]3CCCC[C@@H]3N)c(F)cc2C(N)=O)c2cc[nH]c12` [Example 004-235] are 65 to 130 nM and under 10 nM.
As to `NCCNc1nc(Nc2ccc3ncccc3c2)c(C(N)=O)cc1F` [Example 6-26, 6-((2-aminoethyl)amino)-5-fluoro-2-(quinolin-6-ylamino)nicotinamide], the IC50 in the assay on THP-1 cells (Homo sapiens, THP-1, 7 h, IFN-γ-differentiated THP-1 cells on human IgG-coated plate, cultured 7 hours, read-out: TNFα generation inhibitory activity (IC50)) is at most 200 nM; in assay [1] (read-out: Syk-inhibitory activity (IC50)), at most 1000 nM.
As for `C[C@H](N)CNc1nc(Nc2cnc3ccccc3c2)c(C(N)=O)cc1F` [Example 006-092, (S)-6-((2-aminopropyl)amino)-5-fluoro-2-((quinolin-3-yl)amino)nicotinamide], the IC50 in the assay with THP-1 cells (setting [2]) was under 65 nM; in assay [1] (setting [3]), under 10 nM.
For `COc1cc(Nc2nc(NC[C@H](C)N)c(F)cc2C(N)=O)cc(OC)c1` [Example 006-093, (S)-6-((2-aminopropyl)amino)-2-(3,5-dimethoxyphenylamino)-5-fluoronicotinamide], in that order: under 65 nM and under 10 nM.
Regarding `Cc1cncc(Nc2nc(NC[C@H](C)N)c(F)cc2C(N)=O)c1` [Example 006-094, (S)-6-((2-aminopropyl)amino)-5-fluoro-2-((5-methylpyridin-3-yl)amino)nicotinamide], the IC50 lay in the range of 65 to 130 nM in the assay with THP-1 cells (setting [2]) and 10 to 50 nM in assay [1] (setting [3]).
For `COc1cc(Nc2nc(NC[C@H](C)N)c(F)cc2C(N)=O)ccn1` [Example 006-096, (S)-6-((2-aminopropyl)amino)-5-fluoro-2-((2-methoxypyridin-4-yl)amino)nicotinamide], in that order: under 65 nM and 10 to 50 nM.
With `C[C@H](N)CNc1nc(Nc2cccc(-n3nccn3)c2)c(C(N)=O)cc1F` [Example 006-097, (S)-2-((3-(2H-1,2,3-triazol-2-yl)phenyl)amino)-6-((2-aminopropyl)amino)-5-fluoronicotinamide], the IC50 is under 65 nM in the assay on THP-1 cells (setting [2]) and under 10 nM in assay [1] (setting [3]).
`Cc1cccc(Nc2nc(NC[C@H](C)N)c(F)cc2C(N)=O)c1` [Example 006-099]: the IC50 was under 65 nM with THP-1 cells (setting [2]) and 10 to 50 nM in assay [1] (setting [3]).
For `COc1cc(Nc2nc(N[C@H](C)CN)c(F)cc2C(N)=O)cc(OC)c1` [Example 006-100, (R)-6-((1-aminopopan-2-yl)amino)-2-((3,5-dimethoxyphenyl)amino)-5-fluoronicotinamide], the IC50 with THP-1 cells (setting [2]) was 65 to 130 nM; in assay [1] (setting [3]) it was under 10 nM.
As for `Cc1cncc(Nc2nc(N[C@H](C)CN)c(F)cc2C(N)=O)c1` [Example 006-101, (R)-6-((1-aminopropan-2-yl)amino)-5-fluoro-2-((5-methylpyridin-3-yl)amino)nicotinamide], the values for the IC50 (in the assay on THP-1 cells (setting [2]); in assay [1] (setting [3])) were 65 to 130 nM and 10 to 50 nM, respectively.
With `C[C@H](CN)Nc1nc(Nc2ccc3c(cnn3C)c2)c(C(N)=O)cc1F` [Example 006-102, (R)-6-((1-aminopropan-2-yl)amino)-5-fluoro-2-((1-methyl-1H-indazol-5-yl)amino)nicotinamide], the IC50 in the assay with THP-1 cells (setting [2]) lay within 65 to 130 nM; in assay [1] (setting [3]), 10 to 50 nM.
Consider `Cc1cncc(Nc2nc(N[C@@H]3CCCC[C@@H]3N)c(F)cc2C(N)=O)c1` [Example 006-103, 6-(((1R,2S)-2-aminocyclohexyl)amino)-5-fluoro-2-((5-methylpyridin-3-yl)amino)nicotinamide], for which the IC50 in the assay on THP-1 cells (setting [2]) is under 65 nM; in assay [1] (setting [3]), under 10 nM.
On to `Cc1ccc(Nc2nc(N[C@@H]3CCCC[C@@H]3N)c(F)cc2C(N)=O)cn1` [Example 006-104, 6-(((1R,2S)-2-aminocyclohexyl)amino)-5-fluoro-2-((6-methylpyridin-3-yl)amino)nicotinamide], for which the IC50 in the assay on THP-1 cells (setting [2]) is 65 to 130 nM; in assay [1] (setting [3]), under 10 nM.
As for `Cc1cncc(Nc2nc(N[C@H](C)[C@H](C)N)c(F)cc2C(N)=O)c1` [Example 006-108], the IC50 in the assay on THP-1 cells (setting [4]) lay in the range of 65 to 130 nM; in assay [1] (setting [3]) it was 10 to 50 nM.
For the compound `C[C@H](N)[C@@H](C)Nc1nc(Nc2cccc3ncccc23)c(C(N)=O)cc1F` [Example 006-110], the results for the IC50 (with THP-1 cells (setting [4]); in assay [1] (setting [3])) were 65 to 130 nM and under 10 nM, respectively.
For the compound `NC(=O)c1cc(F)c(N[C@@H]2CCCC[C@@H]2N)nc1Nc1cncc(-c2ccccc2)c1` [Example 006-113, 6-(((1R,2S)-2-aminocyclohexyl)amino)-5-fluoro-2-((5-phenylpyridin-3-yl)amino)nicotinamide], the IC50 with THP-1 cells (setting [2]) was under 65 nM; in assay [1] (setting [3]), under 10 nM.
As to `COc1cc(Nc2nc(N[C@@H]3CCCC[C@@H]3N)c(F)cc2C(N)=O)cc(OC)n1` [Example 006-114, 6-(((1R,2S)-2-aminocyclohexyl)amino)-2-((2,6-dimethoxypyridin-4-yl)amino)-5-fluoronicotinamide], the values for the IC50 (in the assay on THP-1 cells (setting [2]); in assay [1] (setting [3])) were 65 to 130 nM and under 10 nM, respectively.
`Cn1ncc2cc(Nc3nc(NC[C@@H](N)c4ccccc4)c(F)cc3C(N)=O)ccc21` [Example 006-119, (S)-6-((2-amino-2-phenylethyl)amino)-5-fluoro-2-((1-methyl-1H-indazol-5-yl)amino)nicotinamide]: the IC50 fell in the range of 130 to 200 nM with THP-1 cells (setting [2]) and 10 to 50 nM in assay [1] (setting [3]).
For `NC[C@H](Nc1nc(Nc2cccc(-n3nccn3)c2)c(C(N)=O)cc1F)c1ccccc1` [Example 006-132, (R)-2-((3-(2H-1,2,3-triazol-2-yl)phenyl)amino)-6-((2-amino-1-phenylethyl)amino)-5-fluoronicotinamide], in that order: 130 to 200 nM and under 10 nM.
In the same order, the values of `COc1cc(Nc2nc(N[C@@H](CN)c3ccccc3)c(F)cc2C(N)=O)ccn1` [Example 006-133, (R)-6-((2-amino-1-phenylethyl)amino)-5-fluoro-2-((2-methoxypyridin-4-yl)amino)nicotinamide] are 130 to 200 nM and 10 to 50 nM.
With `CC(C)C[C@H](CN)Nc1nc(Nc2ccc3c(cnn3C)c2)c(C(N)=O)cc1F` [Example 006-142, (R)-6-((1-amino-4-methylpentan-2-yl)amino)-5-fluoro-2-((1-methyl-1H-indazol-5-yl)amino)nicotinamide], the values for the IC50 (in the assay with THP-1 cells (setting [2]); in assay [1] (setting [3])) were under 65 nM and under 10 nM, respectively.
In the same order, the values of `CC(C)C[C@H](CN)Nc1nc(Nc2ccnc(-n3ccnn3)c2)c(C(N)=O)cc1F` [Example 006-143, (R)-2-((2-(1H-1,2,3-triazol-1-yl)pyridin-4-yl)amino)-6-((1-amino-4-methylpentan-2-yl)amino)-5-fluoronicotinamide] are 130 to 200 nM and under 10 nM.
For `CC(C)C[C@H](CN)Nc1nc(Nc2cncc(C3CC3)c2)c(C(N)=O)cc1F` [Example 006-144, (R)-6-((1-amino-4-methylpentan-2-yl)amino)-2-((5-cyclopropylpyridin-3-yl)amino)-5-fluoronicotinamide], the IC50 with THP-1 cells (setting [2]) was 65 to 130 nM; in assay [1] (setting [3]) it was under 10 nM.
For the compound `CCOc1cc(Nc2nc(N[C@@H](CN)CC(C)C)c(F)cc2C(N)=O)ccn1` [Example 006-145, (R)-6-((1-amino-4-methylpentan-2-yl)amino)-2-((2-ethoxypyridin-4-yl)amino)-5-fluoronicotinamide], the results for the IC50 (in the assay on THP-1 cells (setting [2]); in assay [1] (setting [3])) were 65 to 130 nM and under 10 nM, respectively.
With `NC(=O)c1cc(F)c(N[C@@H]2CCCC[C@@H]2N)nc1Nc1ccnc(-n2nccn2)c1` [Example 006-146, 2-((2-(2H-1,2,3-triazol-2-yl)pyridin-4-yl)amino)-6-(((1R,2S)-2-aminocyclohexyl)amino)-5-fluoronicotinamide], the IC50 is under 65 nM with THP-1 cells (setting [4]) and under 10 nM in assay [1] (setting [3]).
Regarding `CC(C)C[C@H](CN)Nc1nc(Nc2ccc3scnc3c2)c(C(N)=O)cc1F` [Example 006-147, (R)-6-((1-amino-4-methylpentan-2-yl)amino)-2-(benzo[d]thiazol-5-ylamino)-5-fluoronicotinamide], the IC50 with THP-1 cells (setting [2]) was 130 to 200 nM; in assay [1] (setting [3]) it was under 10 nM.
For the compound `Cc1cnc2cc(Nc3nc(N[C@@H](CN)CC(C)C)c(F)cc3C(N)=O)ccc2n1` [Example 006-148, (R)-6-((1-amino-4-methylpentan-2-yl)amino)-5-fluoro-2-((2-methylquinoxalin-6-yl)amino)nicotinamide], the figures for the IC50 (in the assay on THP-1 cells (setting [2]); in assay [1] (setting [3])) were 130 to 200 nM and under 10 nM, respectively.
Consider `CC(C)C[C@H](CN)Nc1nc(Nc2ccnc(-n3cncn3)c2)c(C(N)=O)cc1F` [Example 006-153, (R)-2-((2-(1H-1,2,4-triazol-1-yl)pyridin-4-yl)amino)-6-((1-amino-4-methylpentan-2-yl)amino)-5-fluoronicotinamide], for which the IC50 is under 65 nM in the assay with THP-1 cells (setting [2]) and under 10 nM in assay [1] (setting [3]).
